The values below come from patent US9834581B2, “Cell penetrating peptides for intracellular delivery of molecules” (AADIGEN, LLC, priority 2012, dated 2017).

In one assay the test system is MEF. In words: VEPEP-4 mediated delivery of fluorescently labelled peptide (fluorescence microscopy or FACS). The assay is classed as cell-based, Mouse. The following applies: uptake of fluorescently labelled peptide cargo. How it is done: (§1) Adherent HS68 fibroblasts, HeLa, PC3, CEM-SS, U20S, MCF-7, and HEK2 cell lines (from American Type Culture Collection (ATCC)), as well as MEF and PBMC, were cultured in Dulbecco's Modified Eagle's Medium supplemented with 2 mM glutamine, 1% antibiotics (streptomycin 10,000 μg/ml, penicillin, 10,000 IU/ml) and 10% (w/v) foetal calf serum (FCS), at 37° C. in a humidified atmosphere containing 5% CO2. Stock solutions of VEPEP-4/peptide particles were prepared by complexing 1 μM peptide with VEPEP-4 peptides at a molar ratio of 1/20 for 30 min at 37° C. Lower concentrations of VEPEP-4-carrier/peptide (from 500 nM to 1 μM) were obtained by serial dilution of the stock complexes in PBS, in order to preserve the same VEPEP-4-carrier/peptide ratio. 150,000 cells seeded in a 35 mm dish the day prior transfection, were grown to 60% confluence and overlaid with 200 μl of preformed complexes, incubated for 3-5 min, then 400 μl of DMEM were added. After 30 min. incubation at 37° C., 1 ml of fresh DMEM containing 16% foetal calf serum (FCS) was added in order to reach a final FCS concentration of 10%, without removing the overlay of VEPEP-4/peptide complexes. Cells were returned to the incubator for 24 hrs. For CDK2 derived peptides cell proliferation was monitored after 24 and 48 hrs. For peptide-targeting integrase, HIV proliferation was analyzed on activated PBMC cells after 3 and 5 days. Data reported are an average of 3 or 4 distinct experiments.
(§2) VEPEP-4 peptides have been used for the delivery of different peptides into different cell lines, including primary cell lines, stem cell lines and challenging cell lines. Peptide delivery was monitored using three approaches, fluorescence spectroscopy and monitoring biological responses (anti proliferation and anti viral responses).
(§3) 1—Fluorescently labelled peptide was visualized in the different cell lines using fluorescence microscopy or FACS sorting (Table 3). In most of the cell lines, the uptake of Cy-5 labelled peptides is more than 70% of the cells.

Another assay concerns Peptide (C4). Kind of assay: Fluorescence titration of VEPEP-4 binding to peptide cargo. The procedure:
(§4) Fluorescence experiments were performed on a PTI spectrofluorimeter at 25° C. in a NaCl 154 mM buffer. Intrinsic Trp-fluorescence of VEPEP-4 was excited at 290 nm and emission spectrum was recorded between 310 and 400 nm, with a spectral band-pass of 2 and 8 nm for excitation and emission, respectively. FITC-fluorescence of labelled-peptide was excited at 492 nm and emission recorded between 500 and 580 nm. For VEPEP-4/peptide interaction, 0.5 μM of FITC-labelled peptide was titrated by increasing concentrations of VEPEP-4. All measurements were corrected for the dilution and curve fitting were performed by using Grafit software (Erithacus).
(§5) VEPEP-4i (SEQ ID No: 1) and VEPEP-4j (SEQ ID No: 2) peptides form stable complexes with peptides. The binding of cargos to VEPEP-4 was monitored by fluorescence spectroscopy using the both intrinsic Trp group of VEPEP-4 (4 Trp-residues) and extrinsic fluorescently labeled cargoes (using Cy5 or FITC). Curve fitting reveal that VEPEP-4 strongly binds the different cargoes with dissociation constant in the nanomolar range (Table 1 and FIG. 1).

A further assay deals with PBMC. In words: VEPEP-4 mediated delivery of fluorescently labelled peptide (fluorescence microscopy or FACS). Type of assay: cell-based, Human. The following applies: uptake of fluorescently labelled peptide cargo. How it is done: as §1, §2, §3
The next assay deals with CEM-SS. The description is as above. The assay is classed as cell-based, Human. The following applies: uptake of fluorescently labelled peptide cargo. How it is done:
as §1, §2, §3

The test system of assay [1] is MCF7. The description is as above. The following applies: MCF7, uptake of fluorescently labelled peptide cargo. Type of assay: cell-based, Human. How it is done: as §1, §2, §3
Another assay has as its system U2OS. The description is as above. The assay is classed as cell-based, Human. The conditions noted are these: uptake of fluorescently labelled peptide cargo. How it is done: as §1, §2, §3
Assay [2] deals with Hela. Described as above. The assay is classed as cell-based, Human. The following applies: uptake of fluorescently labelled peptide cargo. The procedure: as §1, §2, §3
In another assay the test system is HS-68. The description is as above. The assay is classed as cell-based, Human. The following applies: HS-68, uptake of fluorescently labelled peptide cargo. The procedure: as §1, §2, §3
For another assay, the system named is Cyclic peptide (PC4). Kind of assay: Fluorescence titration of VEPEP-4 binding to cyclic peptide cargo. How it is done: as §4, §5
The test system of assay [3] is MCF7. The assay is classed as cell-based, Human. The procedure:
as §1
(§6) VEPEP-4 peptides have been used for the delivery of different small fluorescent hydrophobic and charged molecules as well as doxorubicin on different cell lines including primary cell lines and challenging cell lines. VEPEP-4 peptides form stable particles with small aromatic molecules including doxorubicin. Effect of VEPEP-4 mediated delivery of doxorubicin has been investigated on cancer cell viability. […] The impact of carrier peptides to improve cellular uptake of small molecule drugs was estimated by following inhibition of proliferation of cancer cells.

Assay [4] has as its system Hela. In words: cells. The procedure: Cells were returned to the incubator for 24 hrs.
Effect of VEPEP-4 mediated delivery of doxorubicin has been investigated on cancer cell viability.

A short description of assay [5]: Fluorescence titration of VEPEP-4 binding to small molecule cargo. How it is done: as §4
VEPEP-4 peptides also form stable particles with small aromatic molecules including daunomycin, Paclitaxel, doxorubicin, porphyrin and charged molecules including nucleotide, nucleoside and peptide-analogue of nucleic acids or fluorescent dyes. The dissociation constant for small hydrophobic molecule ranges between 0.05 to 2 μM, depending on the nature of the dyes and of the peptides.
Binding of small molecule cargoes has been investigated in detail depending on the nature of the SMH. Several hydrophobic and charges molecules have been use (Daunomycin, Paclitaxel, doxorubicin, porphyrin) and charged molecules (nucleotide, nucleoside and fluorescent dyes).

The next assay concerns HIV-1LAI. Type of assay: cell-based. The following applies: 1LAI. The procedure:
as §1
The anti-HIV activities of the peptides (PC4D, PC4S, PC6D, PC6S) and VEPEP-4/peptides complexes were assayed according to previously described method (Roisin et al, 2004). Phytohemagglutinin-P (PHA-P)-activated peripheral blood mononuclear cells (PBMC) treated by increasing concentrations of peptide (from 100 to 0.1 nM), one hour later, were infected with hundred 50% tissue culture infectious doses (TCID50) per 100,000 cells of the HIV-1-LAI or different resistant strains (Barre-Sinoussi et al, 1983). Viruses were amplified in vitro on PHA-P-activated PBMC. Viral stock was titrated using PHA-P-activated PBMC, and 50% TCID50 were calculated using Kärber's formula (Karber 1931). Samples were maintained throughout the culture, and cell supernatants were collected at day 7 post-infection and stored at −20 C. Viral replication was measured by quantifying RT activity in cell culture supernatants. In parallel, cytotoxicity of the compounds was evaluated in uninfected PHA-P-activated PBMC by colorimetric 3-(4-5 dimethylthiazol-2-yl)2,5 diphenyl tetrazolium bromite (MTT) assay on day 7 (Mossmann 1983). Experiments were performed in triplicate and repeated with another blood donor. […]

The test system of a further assay is HEK2. In words: cells. The assay is classed as cell-based. The procedure:
as §1, §6

*1 amine or outer side, *2 acyl side, *3 side chain or, on linkers, in order; H or OH if unused. Where a SMILES comes first, the peptide text is derived from it. [ ]: non-standard residue; d: D form. Cysteamide = C(CS[*:3])N[*:1]; βAla = NCCC(=O)O

Experimental for Hela cells: (§7) Adherent HS68 fibroblasts, HeLa, PC3, CEM-SS, U20S, MCF-7, and HEK2 cell lines (from American Type Culture Collection (ATCC)), as well as MEF and PBMC, were cultured in Dulbecco's Modified Eagle's Medium supplemented with 2 mM glutamine, 1% antibiotics (streptomycin 10,000 μg/ml, penicillin, 10,000 IU/ml) and 10% (w/v) foetal calf serum (FCS), at 37° C. in a humidified atmosphere containing 5% CO2. Stock solutions of VEPEP-4/peptide particles were prepared by complexing 1 μM peptide with VEPEP-4 peptides at a molar ratio of 1/20 for 30 min at 37° C. […] 150,000 cells seeded in a 35 mm dish the day prior transfection, were grown to 60% confluence and overlaid with 200 μl of preformed complexes, incubated for 3-5 min, then 400 μl of DMEM were added. After 30 min. incubation at 37° C., 1 ml of fresh DMEM containing 16% foetal calf serum (FCS) was added in order to reach a final FCS concentration of 10%, without removing the overlay of VEPEP-4/peptide complexes. Cells were returned to the incubator for 24 hrs. For CDK2 derived peptides cell proliferation was monitored after 24 and 48 hrs. […] Data reported are an average of 3 or 4 distinct experiments.
Experimental for MCF7 cells: as §7

For the compound `CC(=O)NCCC(=O)N[C@@H](Cc1c[nH]c2ccccc12)C(=O)N[C@@H](Cc1c[nH]c2ccccc12)C(=O)N[C@@H](CCCNC(=N)N)C(=O)N[C@@H](CC(C)C)C(=O)N[C@@H](CO)C(=O)N[C@@H](CC(C)C)C(=O)N[C@@H](CCCNC(=N)N)C(=O)N[C@@H](Cc1c[nH]c2ccccc12)C(=O)N[C@@H](Cc1c[nH]c2ccccc12)C(=O)NCCS` [VEPEP-3i, X1WWRLSLRWW] (Ac-[βAla]WWRLSLRWW-Cysteamide), the Efficiency was found to be 84% in the assay on MEF; 80% in the assay on PBMC; 70% in the assay on CEM-SS; 50% with MCF7 [1]; 78% with U2OS; 65% in the assay with Hela [2]. Besides, the Efficiency with HS-68 amounted to 80%. In addition, the Binding result (with Peptide (C4); in the assay with Cyclic peptide (PC4); in assay [5] (cargo Doxorubicin); in assay [5] (cargo FAM-guanosine); in [5] (cargo porphyrin)) was “yes” each time. Moreover, the Kd at Peptide (C4) is 0.01 to 0.02 µM; on Cyclic peptide (PC4), 0.05 to 0.1 µM; in assay [5] (cargo Doxorubicin), 0.05 µM; in assay [5] (cargo FAM-guanosine), 0.06 µM; in [5] (cargo porphyrin), 0.4 µM. For the same compound, the IC50 came out at 0.5 µM in the assay with MCF7 [3], 1.2 µM in the assay on Hela [4], 0.00024 ± 0.0001 µM in the assay with HIV-1LAI and 0.4 µM in the assay on HEK2.

`CSCC[C@H](NC(=O)[C@H](CCCNC(=N)N)NC(=O)[C@@H](NC(=O)[C@H](CCC(N)=O)NC(=O)[C@H](CCCCN)NC(=O)[C@@H](N)CCCCN)C(C)C)C(=O)N[C@@H](C)C(=O)N[C@@H](Cc1c[nH]cn1)C(=O)N[C@@H](CC(C)C)C(=O)N[C@H](C(=O)N[C@@H](CC(C)C)C(=O)N[C@H](C(=O)O)[C@@H](C)O)C(C)C` [C4, KKQVRMAHLVLT] (H-KKQVRMAHLVLT-OH; N-terminus and C-terminus assumed): the IC50 stood at 0.06 ± 0.012 µM in the assay on MCF7 cells and 0.05 ± 0.015 µM in the assay with Hela cells. The “concentration sufficient to block proliferation” value is 100 nM in the assay on MCF7 cells (MCF7, C4 delivered by VEPEP-4) and 100 nM with Hela cells (Hela, C4 delivered by VEPEP-4).

Broadly, the Kd is the concentration at which binding is half-saturated. The low end stands for tighter binding, the high end for weaker binding. The IC50 is the concentration needed to halve the response being measured. A higher IC50 goes with weaker potency.
